Data from article PMC8196563, “Trichilones A–E: New Limonoids from Trichilia adolfi” (Molecules, 2021).
In brackets after ≈: the same amount, converted by molar mass. Read-outs that look alike come from different tables or passages of the source.

Legend:
[1] = Cytotoxicity in murine macrophage cells (resazurin); assay type: cell-based; details: mouse, Raw 264.7 macrophage cells, Raw 264.7 murine macrophage cells, triplicate
Protocol: The Raw 264.7 murine macrophage cell line was purchased from the American Type Culture Collection (ATCC-TIB71) (Manassas, VA, USA). The cells were maintained in DMEM-HG medium supplemented with 10% fetal bovine serum, 100 U/mL of penicillin and 100 μg/mL of streptomycin and sodium bicarbonate (2.2 g/L) in humidified atmosphere at 37 °C with 5% CO2. Samples were prepared as described above and added (in […]) at different concentrations (6.2–200 μg/mL). Medium blank, control drugs and cell growth controls were included to evaluate cell viability. The plates were incubated for 72 h at 37 °C with 5% CO2. After incubation for the indicated time, the cells were washed, after which 10 μL of Resazurin reagent (2.0 mM) was added. They were further incubated at 37 °C for 3 h in a humidified incubator. The IC50 values were assessed using a fluorometric reader (540 nm excitation, 590 nm emission) and Gen5 software. All assays were performed in triplicate.

[2] = test system: L. braziliensis promastigotes; assay: In vitro leishmanicidal activity against promastigotes; assay type: cell-based; details: Leishmania braziliensis, 72 h, read-out: Leishmanicidal activity L.b, IC50
Protocol: (§1) Leishmanicidal activity was assayed according to Williams, with some modi-fication. Promastigotes of Leishmania: L. amazonensis, Clone 1, NHOM-BR-76-LTB-012 (Lma, donated by the Paul Sabatier Université, France) and L. braziliensis M2904 C192 RJA (M2904, donated by Dr. Jorge Arévalo from Universidad Peruana Cayetano Heredia, Peru). The strains were cultured in Schneider’s insect medium (pH 6.2), supplemented with 10% FBS and incubated in 96-microwell plates at 26 °C. Briefly, promastigotes in logarithmic phase of growth, at concentration of […], were exposed to samples dissolved in DMSO (1%) at different concentrations (3.1–100 μg/mL). Miltefosine (3.1–100 μg/mL, IDPS, France) was used as a positive control drug. The microwell plates were incubated for 72 h at 26 °C, the optical density of each well was measured and the IC50 values calculated. All assays were performed in triplicate.

[3] = test system: Leishmania amazonensis promastigotes; assay: as above; assay type: cell-based; details: 72 h, read-out: Leishmanicidal activity L.a, IC50
Protocol: as §1

[4] = L. braziliensis M2904 C192 RJA promastigotes, 26 °C, triplicate
[5] = L. amazonensis Clone 1 NHOM-BR-76-LTB-012 promastigotes, 26 °C, triplicate

**Q.** For COC(=O)CC1C(C)(C)OC(=O)CC2OC3(C)C4C(=O)CC(c5ccoc5)C4(C)C(OC(C)=O)C(OC(=O)C(C)C)C3C21C (stereo not drawn) [Compound 1, Trichilone A], which melting point is on record?
**A.** 143 °C

**Q.** What about the IC50 at 72 h [1] of the same compound?
**A.** 42 ± 0.9 µg/mL (≈ 68.1 µM)

**Q.** And the IC50 [2, 4]?
**A.** 58 ± 18 µg/mL (≈ 94 µM)

**Q.** For CCC(C)C(=O)OC1C(OC(C)=O)C2(C)C(c3ccoc3)CC(=O)C2C2(C)OC3CC(=O)OC(C)(C)C(CC(=O)OC)C3(C)C12 (stereo not drawn) [Compound 2, Trichilone B], which IC50 at 72 h [1] is on record?
**A.** 30 ± 10 µg/mL (≈ 47.6 µM)

**Q.** And the IC50 [2, 4]?
**A.** 70.1 ± 3 µg/mL (≈ 111 µM)

**Q.** And the IC50 [3, 5]?
**A.** > 100 µg/mL

**Q.** Which IC50 at 72 h [1] does the source give for CCC(C)C(=O)OC1C(OC(C)=O)C2(C)C(c3ccoc3)CC(=O)C2C2(C)OC3CC(=O)OC(C)(C)C(CC(=O)OC)C3(C)C12O (stereo not drawn) [Compound 3, Trichilone C] here?
**A.** 60 ± 17 µg/mL (≈ 92.8 µM)

**Q.** What about the IC50 [2] of the same compound?
**A.** 87.2 ± 13 µg/mL (≈ 135 µM)

**Q.** What about the IC50 [3] of the same compound?
**A.** > 100 µg/mL

**Q.** Which IC50 at 72 h [1] does the source give for COC(=O)CC1C(C)(C)OC(=O)C=C2OC3(C)C(C(OC(C)=O)C(OC(C)=O)C4(C)C(c5ccoc5)CC(=O)C34)C21C (stereo not drawn) [Compound 4, Trichilone D] here?
**A.** 94.1 ± 4.2 µg/mL (≈ 160 µM)

**Q.** And the IC50 [2, 4]?
**A.** 98.5 ± 1.5 µg/mL (≈ 168 µM)

**Q.** And the IC50 [3, 5]?
**A.** > 100 µg/mL

**Q.** For COC(=O)CC1C(C)(C)OC(=O)C=C2OC3(C)C(C(OC(=O)C(C)C)C(OC(C)=O)C4(C)C(c5ccoc5)CC(=O)C34)C21C (stereo not drawn) [Compound 5, Trichilone E], which IC50 at 72 h [1] is on record?
**A.** 41.5 ± 24 µg/mL (≈ 67.5 µM)

**Q.** And the IC50 [2, 4]?
**A.** 68.1 ± 6 µg/mL (≈ 111 µM)

**Q.** And the IC50 [3, 5]?
**A.** 92 ± 7 µg/mL (≈ 150 µM)

**Q.** Which results are given for CCCCCCCCCCCCCCCCOP(=O)([O-])OCC[N+](C)(C)C [Miltefosine, reference compound]?
**A.** IC50 at 72 h [1]: 21 ± 2 µg/mL (≈ 51.5 µM); IC50 [2, 4]: 4.07 ± 0.5 µg/mL (≈ 9.99 µM); IC50 [3, 5]: 5 ± 0.2 µg/mL (≈ 12.3 µM)
